Assay results from patent US20250019385A1, “SPIROCYCLIC ANNULATED 2-AMINO-3-CYANO THIOPHENES AND DERIVATIVES FOR THE TREATMENT OF CANCER” (Boehringer Ingelheim International GmbH, priority 2023, published 2025).
Values after ≈ are worked out from the molar mass of the structure shown. Like-named read-outs stand apart in the source and are kept apart here.

How the values were obtained:
[1] = target: KRAS (G12D)::SOS1 protein-protein interaction (Homo sapiens (Human), UniProt P01116, G12D); assay: KRAS::SOS1 AlphaScreen binding assay (KRAS G12D); details: GDP
From the text: This assay can be used to examine the potency with which compounds according to the invention binding to (mutated) KRAS inhibit the protein-protein interaction between SOS1 and (mutated) KRAS e.g. KRAS G12C, KRAS G12D. […] Low IC50 values in this assay setting are indicative of strong inhibition of protein-protein interaction between SOS1 and KRAS:
These assays measure the inhibitory effect of compounds on KRAS mutant protein-protein interactions using the Alpha Screen technology by Perkin Elmer.
The following (mutant) enzyme forms of KRAS and interacting proteins are used in these assays at the given concentrations:
KRAS (G12D) 1-169, N-terminal 6His-tag, C-terminal avi-tag (Xtal BioStructures, Inc.); final assay concentration 10 nM and SOS1 564-1049, N-terminal 229 GST-tag, TEV cleavage site (Viva Biotech Ltd); final assay concentration 5 nM;
Test compounds dissolved in DMSO are dispensed onto assay plates (Proxiplate 384 PLUS, white, PerkinElmer; 6008289) using an Access Labcyte Workstation with the Labcyte Echo 55x. For the chosen highest assay concentration of 100 μM, 150 nL of compound solution are transferred from a 10 mM DMSO compound stock solution. A series of eleven fivefold dilutions per compound are transferred to the assay plate, compound dilutions are tested in duplicates. DMSO are added as backfill to a total volume of 150 nL.
The assays run on a fully automated robotic system in a darkened room below 100 Lux. To 150 nl of compound dilution 10 μl of a mix including KRAS mutant protein, SOS1 (final assay concentrations see above) and GDP nucleotide (Sigma G7127; final assay concentration 10 μM) in assay buffer (1×PBS, 0.1% BSA, 0.05% Tween 20) are added into columns 1-24.
After 30 minutes incubation time 5 μl of Alpha Screen bead mix in assay buffer are added into columns 1-23. Bead mix consists of AlphaLISA Glutathione Acceptor Beads (PerkinElmer, Cat No AL109) and AlphaScreen Streptavidin Donor Beads (PerkinElmer Cat No 6760002) in assay buffer at a final assay concentration of 10 μg/mL each.
Plates are kept at room temperature in a darkened incubator. After an additional 60 minutes incubation time the signal is measured in a PerkinElmer Envision HTS Multilabel Reader using the AlphaScreen specs from PerkinElmer.
Each plate contains up to 16 wells of a negative control depending on the dilution procedure (platewise or serial) (DMSO instead of test compound; with KRAS mutant::SOS1 GOP mix and bead mix; column 23) and 16 wells of a positive control (DMSO instead of test compound; with KRAS mutant::SOS1 GOP mix w/o bead mix; column 24).
As internal control known inhibitors of KRAS mutant::SOS1 interaction can be measured on each compound plate.
IC50 values are calculated and analyzed with Boehringer Ingelheim's MEGALAB C50 application using a 4 parametric logistic model.
Tables of example compounds disclosed herein contain IC50 values determined using the above assays (see Table 43).

Ba/F3 cells KRAS G12D = assay: Ba/F3 proliferation assay (KRAS G12D); format: cell-based; details: Mus musculus, BaF3, 72 h, AlamarBlue viability
Description: (§1) Ba/F3 cells are ordered from DSMZ (ACC300, Lot17) and grown in RPMI-1640 (ATCC 30-2001)+10% FCS+10 ng/mL IL-3 at 37° C. in 5% […] atmosphere. Plasmids containing KRASG12 mutants (i.e. […], G12C, G12V) are obtained from GeneScript. To generate KRASG12-dependent Ba/F3 models, Ba/F3 cells are transduced with retroviruses containing vectors that harbor KRASG12 isoforms. Platinum-E cells (Cell Biolabs) are used for retrovirus packaging. Retrovirus is added to Ba/F3 cells. To ensure infection, 4 μg/mL polybrene is added and cells are spinfected. Infection efficiency is confirmed by measuring GFP-positive cells using a cell analyzer. Cells with an infection efficiency of 10% to 20% are further cultivated and puromycin selection with 1 μg/mL is initiated. As a control, parental Ba/F3 cells are used to show selection status. Selection is considered successful when parental Ba/F3 cells cultures died. To evaluate the transforming potential of KRASG12 mutations, the growth medium is no longer supplemented with IL-3. Ba/F3 cells harboring the empty vector are used as a control. Approximately ten days before conducting the experiments, puromycin is left out.
(§2) For proliferation assays, Ba/F3 cells are seeded into 384-well plates at 1.5×1 (M cells/60 μL in growth media (RPMI-1640+10% FCS). Compounds (10 mM stock in DMSO) are added at logarithmic dose series using the ECHO acoustic liquid handler system (Beckman Coulter), normalizing for added DMSO and including DMSO controls. All compound treatments are performed in technical duplicates. For the TO time point measurement, untreated cells are analyzed at the time of compound addition. Treated cells are incubated for 72 h at 37° C. with 5% CO2 and cell viability is measured in the PerkinElmer Envision Multimode Reader using AlamarBlue™ (ThermoFisher) viability stain. Viability (stated as percent of control) is defined as relative fluorescence units RFU of each well divided by the RFU of cells in DMSO controls. IC50 values are determined from viability measurements by non-linear regression using a four-parameter model.

Ba/F3 cells KRAS G12C = assay: Ba/F3 proliferation assay (KRAS G12C); format: cell-based; details: Mus musculus, BaF3, 72 h, AlamarBlue viability
Description: as §1, §2

Ba/F3 cells KRAS G12V = assay: Ba/F3 proliferation assay (KRAS G12V); format: cell-based; details: Mus musculus, BaF3, 72 h, AlamarBlue viability
Description: as §1, §2

[2] = Metabolic (microsomal) stability assay, human liver microsomes (HLM); format: in vitro ADME; details: 1 μM test compound, predicted clearance as percent of liver blood flow
Description: The metabolic degradation of the test compound is assayed at 37° C. with pooled liver microsomes (mouse (MLM), rat (RLM) or human (HLM)). The final incubation volume of 48 μL per time point contains TRIS buffer (pH 7.5; 0.1 M), magnesium chloride (6.5 mM), microsomal protein (0.5 mg/mL for mouse/rat, 1 mg/mL for human specimens) and the test compound at a final concentration of 1 μM. Following a short preincubation period at 37° C., the reactions are initiated by addition of 12 μL beta-nicotinamide adenine dinucleotide phosphate, reduced form (NADPH, 10 mM) and terminated by transferring an aliquot into solvent after different time points (0, 5, 15, 30, 60 min). Additionally, the NADPH-independent degradation is monitored in incubations without NADPH, terminated at the last time point by addition of acetonitrile. The quenched incubations are pelleted by centrifugation (4,000 rpm, 15 min). An aliquot of the supernatant is assayed by LC-MS/MS to quantify the concentration of parent compound in the individual samples.
In vitro intrinsic clearance (CLint,in vitro) is calculated from the time course of the disappearance of the test drug during the microsomal incubation. Each plot is fitted to the first-order elimination rate constant as C(t)=C0*exp(−ke*t), where C(t) and C0 are the concentration of unchanged test drug at incubation time t and that at preincubation and ke is the disappearance rate constant of the unchanged drug. Subsequently, CLint, in vitro (μL min^−1·amount protein) values are converted to predicted CLint,in vivo (mL min^−1·kg^−1) from incubation parameters according to the equation CLint, in vivo=CLint, in vitro×(incubation volume (mL)/amount protein (mg))×(amount protein (mg)/g liver tissue)×(liver weight/body wt.).
For better across species comparison the predicted clearance is expressed as percent of the liver blood flow [% QH] (mL min^−1·kg^−1) in the individual species. In general, high stability (corresponding to low % QH) of the compounds across species is desired.

[3] = Solubility measurement (DMSO solution precipitation method); format: physicochemical; details: aqueous buffer, kinetic from dmso stock
Description: A 10 mM DMSO stock solution of a test compound is used to determine its aq. solubility. The DMSO solution is diluted with an aq. medium (McIlvaine buffer with pH=4.5 or 6.8) to a final concentration of 250 μM. After 24 h of shaking at ambient temperature a potentially formed precipitate is removed by filtration. The concentration of the test compound in the filtrate is determined by LC-UV methods by calibrating the signal to the signal of a reference solution with complete dissolution of the test compound in acetonitrile/water (1:1) with known concentration.

[4] = McIlvaine buffer pH 4.5, 24 h, read-out: solubility pH 4.5
[5] = McIlvaine buffer pH 6.8, 24 h, read-out: solubility pH 6.8

KRAS (G12D)::SOS1 protein-protein interaction, sequence (P01116 other isoform, or with tags, fused parts or gaps G12D): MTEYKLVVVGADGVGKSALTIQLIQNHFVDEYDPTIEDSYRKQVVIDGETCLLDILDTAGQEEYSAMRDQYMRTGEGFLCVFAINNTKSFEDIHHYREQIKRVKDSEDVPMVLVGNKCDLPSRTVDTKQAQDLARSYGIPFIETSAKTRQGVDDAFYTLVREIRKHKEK

IC50 [1]	IC50 (Ba/F3 cells KRAS G12D)	IC50 (Ba/F3 cells KRAS G12C)	IC50 (Ba/F3 cells KRAS G12V)	HLM QH [2]	solubility at 24 h [3, 4]	solubility at 24 h [3, 5]	Structure (SMILES)
2 nM	3 nM	2 nM	1 nM	63%	> 148 µg/mL	53 µg/mL (≈ 78.5 µM)	CO[C@H]1CCN(C)[C@@H]1[C@H](C)Oc1nc(-c2onc3c2CCC[C@@]32CCCc3sc(N)c(C#N)c32)nc2c1n(C)c(=O)n2[C@H]1CO[C@@H](C)C1 [I-48]
				35%	> 145 µg/mL	56 µg/mL (≈ 83 µM)	CO[C@@H]1C[C@@H]([C@H](C)Oc2nc(-c3onc4c3CCC[C@@]43CCCc4sc(N)c(C#N)c43)nc3c2n(C)c(=O)n3[C@H]2CO[C@@H](C)C2)N(C)C1 [I-49]
1 nM	19 nM	6 nM	2 nM	45%	> 153 µg/mL	19 µg/mL (≈ 28.2 µM)	C[C@@H]1COC[C@H](n2c(=O)n(C)c3c(O[C@@H](C)[C@@H]4CC[C@H](C)N4C)nc(-c4onc5c4CCC[C@@]54CCCc5sc(N)c(C#N)c54)nc32)C1 [I-53]
